Measurements taken from paper PMC8397297 (ACS Chemical Neuroscience, 2021).
Read-outs that look alike come from different tables or passages of the source.

Columns and labels:
mGAT2 [1] = target: T1, mGAT2 (Mus musculus, UniProt P31651); settings: cited from earlier work; for remaining [3H]GABA uptake mGAT2: 100 μM inhibitor
T1 construct: expressed in transfected cells; host or cells: HEK-293
T1 sequence (P31651 1-614): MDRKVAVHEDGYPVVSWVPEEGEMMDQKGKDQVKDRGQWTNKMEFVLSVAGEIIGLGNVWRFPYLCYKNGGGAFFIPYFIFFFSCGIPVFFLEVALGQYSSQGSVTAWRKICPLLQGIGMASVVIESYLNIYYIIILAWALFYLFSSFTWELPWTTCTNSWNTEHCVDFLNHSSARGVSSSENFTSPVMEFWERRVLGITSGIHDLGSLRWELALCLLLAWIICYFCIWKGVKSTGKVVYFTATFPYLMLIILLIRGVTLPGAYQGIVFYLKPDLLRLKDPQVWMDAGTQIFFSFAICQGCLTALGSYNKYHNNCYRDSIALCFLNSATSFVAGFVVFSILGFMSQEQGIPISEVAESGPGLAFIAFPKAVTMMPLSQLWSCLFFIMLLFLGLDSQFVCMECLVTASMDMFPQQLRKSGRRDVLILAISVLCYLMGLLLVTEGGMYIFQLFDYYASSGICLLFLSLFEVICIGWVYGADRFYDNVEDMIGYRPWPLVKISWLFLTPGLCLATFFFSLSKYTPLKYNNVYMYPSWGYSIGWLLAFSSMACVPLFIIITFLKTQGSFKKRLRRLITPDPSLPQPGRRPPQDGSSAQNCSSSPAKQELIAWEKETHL

mGAT1 [2] = target: T2, mGAT1 (Mus musculus, UniProt P31648); settings: Figure 2; cited from earlier work
T2 construct: expressed in transfected cells; host or cells: HEK-293

mGAT4 [3] = target: T3, mGAT4 (Mus musculus, UniProt P31650); settings: cited from earlier work
T3 construct: expressed in transfected cells; host or cells: HEK-293
T3 sequence (P31650 1-627): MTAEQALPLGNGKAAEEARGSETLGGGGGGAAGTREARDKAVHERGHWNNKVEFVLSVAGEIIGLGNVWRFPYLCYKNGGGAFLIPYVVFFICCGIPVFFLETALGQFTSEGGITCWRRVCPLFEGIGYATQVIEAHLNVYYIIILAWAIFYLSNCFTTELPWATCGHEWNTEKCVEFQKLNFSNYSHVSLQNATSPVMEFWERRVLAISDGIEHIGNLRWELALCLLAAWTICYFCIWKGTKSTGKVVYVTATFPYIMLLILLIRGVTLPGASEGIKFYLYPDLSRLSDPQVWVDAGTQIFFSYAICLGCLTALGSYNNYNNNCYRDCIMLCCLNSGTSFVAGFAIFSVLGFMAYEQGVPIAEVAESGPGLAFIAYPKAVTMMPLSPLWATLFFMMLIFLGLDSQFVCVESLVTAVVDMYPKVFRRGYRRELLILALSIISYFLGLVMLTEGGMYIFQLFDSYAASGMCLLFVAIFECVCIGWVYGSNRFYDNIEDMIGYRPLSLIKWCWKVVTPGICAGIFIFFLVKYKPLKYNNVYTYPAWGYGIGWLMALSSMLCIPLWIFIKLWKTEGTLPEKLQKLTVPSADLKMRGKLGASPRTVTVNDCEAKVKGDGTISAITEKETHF

mGAT3 [4] = target: T4, mGAT3 (Mus musculus, UniProt P31649); settings: cited from earlier work
T4 construct: expressed in transfected cells; host or cells: HEK-293
T4 sequence (P31649 1-602): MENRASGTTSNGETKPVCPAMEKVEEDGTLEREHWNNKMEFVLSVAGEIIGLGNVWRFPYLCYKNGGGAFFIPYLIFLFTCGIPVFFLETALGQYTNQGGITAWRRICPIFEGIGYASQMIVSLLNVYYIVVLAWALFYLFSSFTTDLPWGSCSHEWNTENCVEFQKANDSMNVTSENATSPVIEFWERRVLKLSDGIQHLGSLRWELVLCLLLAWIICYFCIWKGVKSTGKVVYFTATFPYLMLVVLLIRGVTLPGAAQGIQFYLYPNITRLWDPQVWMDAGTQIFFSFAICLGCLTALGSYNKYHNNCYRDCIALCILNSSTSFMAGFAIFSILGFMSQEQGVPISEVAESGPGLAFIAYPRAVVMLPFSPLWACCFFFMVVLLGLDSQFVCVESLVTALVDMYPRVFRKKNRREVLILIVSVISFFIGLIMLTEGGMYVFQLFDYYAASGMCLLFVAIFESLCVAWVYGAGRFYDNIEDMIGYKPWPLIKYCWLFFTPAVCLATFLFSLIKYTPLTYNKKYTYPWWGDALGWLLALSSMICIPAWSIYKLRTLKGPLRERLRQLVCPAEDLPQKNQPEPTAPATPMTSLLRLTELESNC

mGAT1 [5] = target: T2, mGAT1; settings: 100 μM inhibitor; cited from earlier work
mGAT3 [6] = target: T4, mGAT3; assay: [3H]GABA uptake assay in HEK-293 cells stably expressing mGAT3; assay type: cell-based; settings: for IC50: [3H]GABA uptake, read-out: pIC50 ± SEM mGAT3 (converted); for remaining [3H]GABA uptake mGAT3: in the presence of 100 μM inhibitor
mGAT1 [7] = target: T2, mGAT1; assay: competitive MS binding assay with NO711 as unlabeled marker (LC-ESI-MS/MS); settings: for remaining NO711 binding mGAT1: in the presence of 100 μM inhibitor
How it was run: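 Competitive MS binding with unlabeled NO711 as marker, quantified by LC–ESI-MS/MS. Compounds screened at 100 μM for inhibition of marker binding.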

mGAT1 [8] = target: T2, mGAT1; assay: [3H]GABA uptake assay in HEK-293 cells stably expressing mGAT1; assay type: cell-based; settings: in the presence of 100 μM inhibitor
mGAT4 [9] = target: T3, mGAT4; assay: [3H]GABA uptake assay in HEK-293 cells stably expressing mGAT4; assay type: cell-based; settings: for IC50: [3H]GABA uptake, read-out: pIC50 ± SEM mGAT4 (converted); for remaining [3H]GABA uptake mGAT4: in the presence of 100 μM inhibitor
mGAT2 [10] = target: T1, mGAT2; assay: [3H]GABA uptake assay in HEK-293 cells stably expressing mGAT2; assay type: cell-based; settings: in the presence of 100 μM inhibitor

## COc1ccc(C(OCCN2CCC[C@H](C(=O)O)C2)(c2ccc(OC)cc2)c2ccc(OC)cc2)cc1 [(S)-SNAP-5114, (S)-1-{2-[Tris(4-methoxyphenyl)methoxy]ethyl}piperidine-3-carboxylic acid]
mGAT2 [1]
  remaining [3H]GABA uptake mGAT2: 100 μM: 56%
  mGAT2 % (100μM): 56%

## O=C(O)[C@@H]1CCCN(CCC#Cc2ccccc2-c2ccc(F)cc2Cl)C1 [Compound 7]
mGAT1 [2]
  pIC50 mGAT1: 7.68
mGAT2 [1]
  mGAT2 % (100μM): 55%
mGAT4 [3]; Figure 2
  pIC50 mGAT4: 4.29
mGAT3 [4]; Figure 2
  pIC50 mGAT3: 4.56

## COc1ccc(C(OCCN2CCC[C@H](C(=O)O)C2)(c2ccc(OC)cc2)c2ccc(-c3ccc(C=O)cc3)cc2)cc1 [Compound 11]
mGAT2 [1]
  mGAT2 % (100μM): 73%
mGAT3 [4]; Figure 2
  pIC50 mGAT3: 5.16

## O=C1Nc2ccc(-c3cccs3)cc2C1=O [Compound 12]
mGAT1 [2]
  pIC50 mGAT1: < 3
mGAT2 [1]; Figure 2
  pIC50 mGAT2: 3.21

## Cc1ccsc1C(=CCCN(C)C(CCO)C(=O)NCc1ccccc1Cl)c1sccc1C (stereo not drawn) [Compound 13]
mGAT2 [1]; [3H]GABA uptake
  pIC50 mGAT2: 4.98 ± 0.05
mGAT3 [4]; [3H]GABA uptake
  pIC50 mGAT3: 5.31 ± 0.04
mGAT1 [5]
  remaining NO711 binding mGAT1: 100 μM: 77%

## CCOC(=O)[C@H](C)N(C)CCC=C1c2ccccc2C=Cc2ccccc21 [Compound 71, Ethyl N-(3-(5H-Dibenzo[a,d][7]annulen-5-ylidene)propyl)-N-methylalaninate]
mGAT3 [6]
  IC50: 21.9 µM
mGAT1 [7]
  remaining NO711 binding mGAT1: 100 μM: 103%
mGAT1 [8]
  remaining [3H]GABA uptake mGAT1: 100 μM: 52%
mGAT4 [9]
  IC50: 63.1 µM
mGAT2 [10]
  remaining [3H]GABA uptake mGAT2: 100 μM: 54%

## C[C@@H](C(=O)OCc1ccccc1)N(C)CCC=C1c2ccccc2C=Cc2ccccc21 [Compound 72, Benzyl N-(3-(5H-Dibenzo[a,d][7]annulen-5-ylidene)propyl)-N-methylalaninate]
mGAT3 [6]
  remaining [3H]GABA uptake mGAT3: 100 μM: 86%
mGAT1 [7]
  remaining NO711 binding mGAT1: 100 μM: 109%
mGAT1 [8]
  remaining [3H]GABA uptake mGAT1: 100 μM: 98%
mGAT4 [9]
  remaining [3H]GABA uptake mGAT4: 100 μM: 97%
mGAT2 [10]
  remaining [3H]GABA uptake mGAT2: 100 μM: 63%

## CCOC(=O)C(C)N(C)CCC=C(c1sccc1C)c1sccc1C (stereo not drawn) [Compound 73, Ethyl 2-((4,4-Bis(3-methylthiophen-2-yl)but-3-en-1-yl)(methyl)amino)propanoate]
mGAT3 [6]
  IC50: 25.1 µM
mGAT1 [7]
  remaining NO711 binding mGAT1: 100 μM: 94%
mGAT1 [8]
  remaining [3H]GABA uptake mGAT1: 100 μM: 55%
mGAT4 [9]
  IC50: 52.5 µM
mGAT2 [10]
  remaining [3H]GABA uptake mGAT2: 100 μM: 52%

## C[C@@H](C(=O)O)N(C)CCC=C1c2ccccc2C=Cc2ccccc21 [Compound 74, N-(3-(5H-Dibenzo[a,d][7]annulen-5-ylidene)propyl)-N-methylalanine]
mGAT3 [6]
  remaining [3H]GABA uptake mGAT3: 100 μM: 62%
mGAT1 [7]; MS binding assay, read-out: pKi ± SEM mGAT1 (converted)
  Ki: 28.8 µM
mGAT1 [8]
  remaining [3H]GABA uptake mGAT1: 100 μM: 55%
mGAT4 [9]
  remaining [3H]GABA uptake mGAT4: 100 μM: 77%
mGAT2 [10]
  remaining [3H]GABA uptake mGAT2: 100 μM: 55%

## Cc1ccsc1C(=CCCN(C)C(C)C(=O)O)c1sccc1C (stereo not drawn) [Compound 75, 2-((4,4-Bis(3-methylthiophen-2-yl)but-3-en-1-yl)(methyl)amino)propanoic Acid]
mGAT3 [6]
  remaining [3H]GABA uptake mGAT3: 100 μM: 52%
mGAT1 [7]
  remaining NO711 binding mGAT1: 100 μM: 81%
mGAT1 [8]
  remaining [3H]GABA uptake mGAT1: 100 μM: 71%
mGAT4 [9]
  remaining [3H]GABA uptake mGAT4: 100 μM: 60%
mGAT2 [10]
  remaining [3H]GABA uptake mGAT2: 100 μM: 59%

## O=C(O)C1=CCCN(CCO/N=C/c2ccccc2-c2ccc(Cl)cc2Cl)C1 [DDPM-2571]
mGAT3 [4]; [3H]GABA uptake
  pIC50 mGAT3: 4.35

## Cc1ccsc1C(=CCCN1CCC[C@@H](C(=O)O)C1)c1sccc1C [tiagabine, (R)-1-[4,4-bis(3-methyl-2-thienyl)-3-butenyl]-3-piperidinecarboxylic acid]
mGAT2 [1]
  remaining [3H]GABA uptake mGAT2: 100 μM: 52%
mGAT4 [3]; 100 μM inhibitor
  remaining [3H]GABA uptake mGAT4: 100 μM: 73%
mGAT4 [3]; 100μM
  mGAT4 % (100μM): 73%
mGAT3 [4]; 100 μM inhibitor
  remaining [3H]GABA uptake mGAT3: 100 μM: 64%
mGAT3 [4]; 100μM
  mGAT3 % (100μM): 64%

## NCCC(=O)O [β-alanine]
mGAT2 [1]; Figure 2
  pIC50 mGAT2: 2.96
